Data taken from paper PMC10331583, “Control of fibrosis with enhanced safety via asymmetric inhibition of prolyl‐tRNA synthetase 1” (EMBO Molecular Medicine, 2023).
“And” between values parts separate entries of the source, which are not always exact repeats. Equal values may be shown once.

What was measured:
[1] = test system: WI‐26 VA4 cells stably expressing PARS1 FA/EA/RL mutant; conditions: human, 72 h
C57BL/6 mice = assay: Bleomycin‐induced lung fibrosis, preventive model; format: in vivo; conditions: 3 weeks
Method: In a preventive model of bleomycin‐induced lung fibrosis, all experiments were conducted following the international guidelines on the ethical use of experimental animals and approved by the Institutional Animal Care and Use Committee of Aragen Bioscience (17‐0331‐M‐1). C57BL/6 mice (6–7‐week‐old, male, obtained from Simonsen Laboratories) were randomized into groups (n = 10 for each group) such that mean body weights were similar for the different groups. Oral administration of the compounds (vehicle, DWN12088, and pirfenidone) was started a day before oropharyngeal administration of 70 μl bleomycin (2 units/kg). DWN12088 (3, 10, 30 mg/kg) was treated once a day while 100 mg/kg pirfenidone was treated twice a day (200 mg/kg/day) for 3 weeks, and then the outcome was analyzed.

LX2 cells = assay: Determination of collagen level using 3D culture (hydroxyproline); format: cell-based; conditions: Homo sapiens, LX-2, read-out: IC50 for collagen level
Method: To screen HF derivatives, LX2 cells were resuspended with growth medium containing 20% Matrigel (BD Bioscience, 354234) and then seeded at 1 × 10^4 cells/well on a Lipidure‐coated U bottom 96‐well plate (NOF, LCU96). After 48 h, the cells were treated with TGF‐β1 (Sigma‐Aldrich, T7039) for 24 h to mimic fibrotic conditions and then additionally incubated in the presence of various concentrations of test compounds for 48 h. To determine the level of collagen, hydroxyproline levels were measured following the manufacturer's instructions (BioVision, K555‐100). Briefly, after the cells were incubated with HCl for 3 h at 120°C, the soluble supernatant was prepared using activated charcoal (Sigma‐Aldrich, 161551). The samples were dried for 3 h at 60°C and then, incubated with chloramine T mixture for 10 min and Ehrlich's reagent for 90 min at 60°C. The level of hydroxyproline was determined by measuring the absorbance at 540 nm.

[2] = test system: WI‐26 VA4 cells stably expressing EV (empty vector); assay: Cytotoxicity assay in cells stably expressing EV; conditions: WI-26 VA4 EV
[3] = Cytotoxicity assay in cells stably expressing EV; conditions: human; for activity at 72 h, 100 µM: 100000 nM; for activity at 72 h, 300 µM: 300000 nM
[4] = Cytotoxicity, % of control (single replicates, Experiment #1-#4), WI-26 VA4 EV
[5] = Cytotoxicity, % of control, average, WI-26 VA4 EV

**Q.** For `O=C(CC1NCCCC1O)Cn1cnc2cc(Br)c(Cl)cc2c1=O` (stereo not drawn) [HF, Halofuginone, reference compound], which “Cytotoxicity HillSlope (best-fit value)” value [1] is on record?
**A.** -0.8245

**Q.** And the “Cytotoxicity LogIC50 (best-fit value)” value [1]?
**A.** 1.805

**Q.** For `O[C@H]1CCCN[C@@H]1CCCn1cnc2c(Cl)c(Cl)ccc21` [DWN12088], which “fibrotic properties (modified Ashcroft score, lung weight, collagen content in BALF)” value (C57BL/6 mice; 10 mg/kg once a day) is on record?
**A.** alleviated fibrotic properties

**Q.** What about the “fibrotic properties (modified Ashcroft score, lung weight, collagen content in BALF)” value (C57BL/6 mice; 30 mg/kg once a day) of the same compound?
**A.** alleviated fibrotic properties

**Q.** What about the IC50 (LX2 cells) of the same compound?
**A.** 0.0431 µM

**Q.** What about the “Cytotoxicity, % of control (single replicates, Experiment #1-#4)” value (from here on “Cytotoxicity, % of control”) ([2]; 10 nM, 0.01 µM) of the same compound?
**A.** 181.59 % of control and 174.53 % of control and 155.63 % of control and 131.53 % of control and 90.90 % of control and 98.37 % of control and 100.27 % of control and 114.43 % of control

**Q.** What about the “Cytotoxicity, % of control” value ([2]; 30 nM, 0.03 µM) of the same compound?
**A.** 144.67 % of control and 129.26 % of control and 139.92 % of control and 145.06 % of control and 96.12 % of control and 96.09 % of control and 105.17 % of control and 102.77 % of control

**Q.** What about the “Cytotoxicity, % of control” value ([2]; 100 nM, 0.1 µM) of the same compound?
**A.** 147.51 % of control and 118.70 % of control and 139.92 % of control and 137.75 % of control and 115.49 % of control and 112.19 % of control and 121.53 % of control and 122.89 % of control

**Q.** And the “Cytotoxicity, % of control” value ([2]; 300 nM, 0.3 µM)?
**A.** 145.14 % of control and 129.72 % of control and 157.05 % of control and 115.90 % of control and 103.62 % of control and 109.27 % of control and 123.14 % of control and 114.81 % of control

**Q.** What about the “Cytotoxicity, % of control” value ([2]; 1000 nM, 1 µM) of the same compound?
**A.** 147.27 % of control and 102.27 % of control and 132.28 % of control and 145.77 % of control and 98.60 % of control and 107.79 % of control and 107.19 % of control and 105.61 % of control

**Q.** What about the “Cytotoxicity, % of control” value ([2]; 3000 nM, 3 µM) of the same compound?
**A.** 108.37 % of control and 94.06 % of control and 109.81 % of control and 125.38 % of control and 98.33 % of control and 90.23 % of control and 106.43 % of control and 103.83 % of control

**Q.** What about the “Cytotoxicity, % of control” value ([2]; 10000 nM, 10 µM) of the same compound?
**A.** 112.55 % of control and 107.77 % of control and 118.32 % of control and 138.37 % of control and 93.86 % of control and 92.69 % of control and 99.78 % of control and 101.69 % of control

**Q.** And the “Cytotoxicity, % of control” value ([2]; 30000 nM, 30 µM)?
**A.** 48.06 % of control and 41.00 % of control and 64.15 % of control and 50.51 % of control and 27.36 % of control and 27.48 % of control and 37.20 % of control and 42.21 % of control

**Q.** And the “Cytotoxicity, % of control” value ([2]; 100000 nM, 100 µM)?
**A.** 28.49 % of control and 29.03 % of control and 30.62 % of control and 22.10 % of control and 18.35 % of control and 21.38 % of control and 22.01 % of control

**Q.** What about the “Cytotoxicity, % of control” value ([2]; 300000 nM, 300 µM) of the same compound?
**A.** 1.70 % of control and 1.82 % of control and 1.26 % of control and 1.75 % of control and 1.60 % of control and 1.89 % of control and 2.00 % of control

**Q.** And the “Cytotoxicity, % of control” value ([2]; 1000000 nM, 1000 µM)?
**A.** 0.17 % of control and -0.17 % of control and 0.30 % of control and -0.30 % of control (2×) and -0.44 % of control (2×) and -0.63 % of control

**Q.** And the “Cytotoxicity HillSlope (best-fit value)” value ([2]; log(inhibitor) vs. response, variable slope (four parameters))?
**A.** -1.361

**Q.** And the “Cytotoxicity LogIC50 (best-fit value)” value ([2]; log(inhibitor) vs. response, variable slope (four parameters), concentration in nM)?
**A.** 4.38

**Q.** And the CC50 at 72 h [3]?
**A.** 24 µM

**Q.** What about the IC50 at 72 h [3] of the same compound?
**A.** 24 µM

**Q.** And the activity at 72 h, 100 µM [3, 4]?
**A.** 29.1%

**Q.** What about the activity at 72 h, 300 µM [3, 4] of the same compound?
**A.** 2.25%

**Q.** And the activity at 72 h, 0.01 µM ([3]; Cytotoxicity, % of control, average, WI-26 VA4 EV, 10 nM)?
**A.** 131%

**Q.** What about the activity at 72 h, 0.03 µM ([3]; Cytotoxicity, % of control, average, WI-26 VA4 EV, 30 nM) of the same compound?
**A.** 120%

**Q.** And the activity at 72 h, 0.1 µM ([3]; Cytotoxicity, % of control, average, WI-26 VA4 EV, 100 nM)?
**A.** 127%

**Q.** What about the activity at 72 h, 0.3 µM ([3]; Cytotoxicity, % of control, average, WI-26 VA4 EV, 300 nM) of the same compound?
**A.** 125%

**Q.** What about the activity at 72 h, 1 µM ([3]; Cytotoxicity, % of control, average, WI-26 VA4 EV, 1000 nM) of the same compound?
**A.** 118%

**Q.** What about the activity at 72 h, 3 µM ([3]; Cytotoxicity, % of control, average, WI-26 VA4 EV, 3000 nM) of the same compound?
**A.** 105%

**Q.** What about the activity at 72 h, 10 µM ([3]; Cytotoxicity, % of control, average, WI-26 VA4 EV, 10000 nM) of the same compound?
**A.** 108%

**Q.** And the activity at 72 h, 30 µM ([3]; Cytotoxicity, % of control, average, WI-26 VA4 EV, 30000 nM)?
**A.** 42.2%

**Q.** And the activity at 72 h, 100 µM [3, 5]?
**A.** 25.1%

**Q.** And the activity at 72 h, 300 µM [3, 5]?
**A.** 1.78%

**Q.** What about the activity at 72 h, 1000 µM ([3]; Cytotoxicity, % of control, average, WI-26 VA4 EV, 1000000 nM) of the same compound?
**A.** -0.23%
